Assays:
[1] = tested on: cholesterol fed rabbits; assay: Hypolipidemic activity in cholesterol fed rabbits (Example 23); format: in vivo, rabbit
Procedure: The amla seed extract as prepared in example 1 was evaluated for hypolipidemic activity in experimental rabbits. Male NZ white rabbits weighing 1.5-2.0 kg were used for the experiment. They were housed in a temperature-controlled room (25±2° C.) in clean stainless steel cages with ‘12 h light and 12 h dark’ cycles and fed with normal pellet diet and water ad libitum.
After the acclimatization period of 10 days, blood samples were collected from marginal ear vein of all the rabbits. The blood was allowed to clot and then centrifuged at 3000 rpm for 10 min and the serum was carefully drawn and collected into separate tubes. The serum was analyzed for total cholesterol, triglycerides, high density lipoproteins (HDL), low density lipoproteins (LDL) and very low density lipoproteins (VLDL) levels using auto-analyzer.
After taking baseline lipid profile the animals were divided into four groups having six animals in each group. Following treatment was given to the animals for the three months:
Blood samples were collected from all the rabbits after 3 months of treatment and serum was analyzed for lipid profile. After blood collection the animals were sacrificed after injecting pentobarbitone and aorta was dissected out, washed with saline and preserved in 10% formalin for histopathology. The sections were cut using microtome and stained with heamatoxylin & eosin dye and mounted on glass slides. The slides were observed under microscope and aortic intima media thickness (IMT) was measured by histomorphometry.

[2] = tested on: Triton WR 1339 induced dyslipidemia in Albino rats (Sprague Dawley strain); assay: Hypolipidemic activity of product 3 compared with amla seed powder, Triton WR 1339 model (Example 26); format: in vivo, rat
Procedure: Twenty eight male Albino rats (Sprague Dawley strain) weighing approximately 250-300 gm were selected for the study. The animals were maintained at temperature of 24±2° C., 65% relative humidity and 12 hr light/dark cycle. The rats were acclimatized for two weeks and during this period they had access to standard pellet diet and water ad libitum. After two weeks of acclimatization, all the rats were fasted overnight before injecting Triton WR 1339 (Tyloxapol) and administration of test extracts/standard. The animals were divided into seven groups. Following treatment was given to overnight fasted rats: • Group I: Normal control (vehicle only) • Group II: Triton WR 1339 (300 mg/kg, intraperitoneal) • Group III: Triton WR 1339 (300 mg/kg, intraperitoneal) followed by administering product of amla seed extract (product 3) on the same day of triton administration (0.5 mg/kg, per oral) • Group IV: Triton WR 1339 (300 mg/kg, intraperitoneal) followed by product 2 (50% methanol fraction+80% methanol fraction+water fraction) of amla seed extract on the same day that Triton was administered (0.5 mg/kg, per oral) • Group V: Triton WR 1339 (300 mg/kg, intraperitoneal) followed by product 1 (Hexane fraction) of amla seed extract on the same day that Triton was administered (0.5 mg/kg, per oral) • Group VI: Triton WR 1339 (300 mg/kg, intraperitoneal) followed by powder of dried amla seed prepared as per Example 7 (0.5 mg/kg, per oral). The powder of dried amla seed was administered on the same day as triton was administered. • Group VII: Triton WR 1339 (300 mg/kg, intraperitoneal) followed by atorvastatin administration (10 mg/kg, per oral), on the same day.
The animals were deprived of food for next 24 hours but had free access to water ad libitum. After 24 hours of drug treatment, 2 ml of blood sample was collected from the retro orbital plexus. The blood was allowed to clot and then centrifuged at 3000 rpm for 10 min and the serum was carefully drawn and collected into separate tubes. The serum was analyzed for total cholesterol, triglycerides, high density lipoproteins (HDL), low density lipoproteins (LDL) and very low density lipoproteins (VLDL) levels using auto-analyzer.

[3] = tested on: Triton WR 1339 induced dyslipidemia in Albino rats (Sprague Dawley strain); assay: Hypolipidemic activity compared with other amla extracts, Triton WR 1339 model (Example 20); format: in vivo, rat
Procedure: Forty eight male Albino rats (Sprague Dawley strain) weighing approximate 250-300 gm were selected for the study. The animals were kept in the animal house maintained at temp 24±2° C., 65% relative humidity and 12 hr light/dark cycle. The rats were acclimatized for two weeks and during this period they had access to standard pellet diet and water ad libitum. After two weeks of acclimatization, all the rats were fasted overnight before injecting Triton WR 1339 (Tyloxapol) and administration of test extracts/standard. The animals were divided into eight groups. Following treatment was given to overnight fasted rats: • Group I: Normal control (vehicle only). • Group II: Triton WR 1339 (300 mg/kg, intraperitoneal). • Group III: Triton WR 1339 (300 mg/kg, intraperitoneal) followed by amla seed extract prepared as per example 1 (2.5 mg/kg, per oral). • Group IV: Triton WR 1339 (300 mg/kg, intraperitoneal) followed by amla extract prepared as per example 3 (40 mg/kg, per oral). • Group V: Triton WR 1339 (300 mg/kg, intraperitoneal) followed by amla extract prepared as per example 4 (40 mg/kg, per oral). • Group VI: Triton WR 1339 (300 mg/kg, intraperitoneal) followed by amla extract prepared as per example 5 (40 mg/kg, per oral). • Group VII: Triton WR 1339 (300 mg/kg, intraperitoneal) followed by amla extract prepared as per example 6 (40 mg/kg, per oral). • Group VIII: Triton WR 1339 (300 mg/kg, intraperitoneal) followed by atorvastatin (10 mg/kg, per oral).
The animals were deprived of food for next 24 hours but had free access to water ad libitum. After 24 hour of drug treatment 2 ml blood samples were collected from the retro orbital plexus. The blood was allowed to clot and then centrifuged at 3000 rpm for 10 min and the serum was carefully drawn and collected into separate tubes. The serum was analyzed for total cholesterol, triglycerides, high density lipoproteins (HDL), low density lipoproteins (LDL) and very low density lipoproteins (VLDL) levels using auto-analyzer.

[4] = after 3 months cholesterol 100 mg/kg + 10 mg/kg
[5] = 24 h after Triton i.p. + 10 mg/kg p.o.

## CC(C)c1c(C(=O)Nc2ccccc2)c(-c2ccccc2)c(-c2ccc(F)cc2)n1CC[C@@H](O)C[C@@H](O)CC(=O)O [Atorvastatin]
[1]; 10 mg/kg, 3 months, compared to untreated control group
  effect on total cholesterol and triglyceride level: decreased the total cholesterol and triglyceride level significantly
[1]; [4]
  HDL After: 20.37 mg/dL
  LDL After: 82.8 mg/dL
  TC After: 118.9 mg/dL
  TG After: 78.67 mg/dL
  VLDL After: 15.73 mg/dL
[1]; after 3 months cholesterol 100 mg/kg + 10 mg/kg, histomorphometry
  Aortic intima media thickness: 112.36 μm
[1]; baseline, 10 mg/kg group
  HDL Before: 14.15 mg/dL
  LDL Before: 27.88 mg/dL
  TC Before: 53.69 mg/dL
  TG Before: 58.28 mg/dL
  VLDL Before: 11.66 mg/dL
[2]; [5]
  HDL After: 38.46 mg/dL
  LDL After: 44.30 mg/dL
  TC After: 121.21 mg/dL
  TG After: 192.25 mg/dL
  VLDL After: 44.30 mg/dL
[2]; baseline, 10 mg/kg p.o. group
  HDL Before: 35.54 mg/dL
  LDL Before: 58.22 mg/dL
  TC Before: 103.47 mg/dL
  TG Before: 48.54 mg/dL
  VLDL Before: 58.22 mg/dL
[3]; [5]
  HDL After: 33.84 mg/dL
  LDL After: 55.00 mg/dL
  TC After: 132.58 mg/dL
  TG After: 218.66 mg/dL
  VLDL After: 43.73 mg/dL
[3]; baseline, 10 mg/kg p.o. group
  HDL Before: 35.11 mg/dL
  LDL Before: 52.43 mg/dL
  TC Before: 97.33 mg/dL
  TG Before: 48.99 mg/dL
  VLDL Before: 9.79 mg/dL
[3]; other amla extracts 40 mg/kg vs seed extract 2.5 mg/kg, atorvastatin 10 mg/kg p.o.
  effect on cholesterol and triglyceride level: effective in lowering the cholesterol as well as triglyceride levels
